For 11 molecules, IC50 and Selectivity results are on record in EP4786487A1, “PEPTIDE” (Peptidream Inc, priority 2023, dated 2025).

The term IC50 denotes the concentration needed to halve the response being measured.

Holding throughout (assay type): cell-based
Assay [1] deals with T1, Myostatin (Homo sapiens, UniProt O14793).
T1 construct: active myostatin (also called mature myostatin) is a homodimer consisting of two C-terminal growth factor domains; purchased R&D systems 788-G8/CF
T1 sequence (O14793 267-375): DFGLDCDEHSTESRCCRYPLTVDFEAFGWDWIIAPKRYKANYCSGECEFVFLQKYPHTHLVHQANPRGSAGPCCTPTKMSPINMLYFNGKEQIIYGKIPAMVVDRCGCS
The assay is described as follows: Reporter gene assay for myostatin signaling in HepG2 cell line, Evaluation Procedure (1), myostatin inhibition. As to conditions: Method A: Myostatin 10 ng/mL; read-out: IC50 (Luciferase) Myostatin HepG2. The procedure, abridged: (§1)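 HepG2 cells transfected with pGL3(CAGA)12-luciferase reporter, serum-starved in 0.1% BSA medium, then stimulated with myostatin or GDF-11 plus 4-fold peptide dilutions (0.006–100 nmol/L for myostatin, 0.12–2000 nmol/L for GDF-11) for 20–24 h at 37 °C. Luminescence read with One-Glo; IC50 calculated.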
A general note: In a reporter assay the amount or activity of a reporter protein is the signal.

Assay [2] concerns Myostatin. Described as above. As to conditions: Method A; GDF-11 IC50 versus Myostatin IC50. In outline:
as §1

The next assay has as its target T2, GDF-11 (Homo sapiens, UniProt O95390).
T2 construct: purchased R&D systems 1958-GD-G8/CF
T2 sequence (O95390 299-407): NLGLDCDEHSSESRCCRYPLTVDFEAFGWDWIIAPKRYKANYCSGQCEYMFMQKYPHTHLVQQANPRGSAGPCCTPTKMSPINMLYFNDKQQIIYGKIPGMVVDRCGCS
The assay is described as follows: Reporter gene assay for myostatin signaling in HepG2 cell line, Evaluation Procedure (1), GDF-11 inhibition. As to conditions: Method A: GDF-11 10 ng/mL; read-out: IC50 (Luciferase) GDF-11 HepG2. The procedure, abridged: as §1

Starred links: 1 amine or outer side, 2 acyl side, 3 side chain; linkers in the order of their positions; H or OH if unused. Positions of bridges follow the written chain, without caps; N, C: chain ends. Non-standard residues stand in square brackets, D forms with d. Residues, ends and D or L forms follow the SMILES beside them. Phe(3-OCH2COOH) = N[C@@H](Cc1cccc(OCC(=O)O)c1)C(=O)O; Phe(4-COOH) = N[C@@H](Cc1ccc(C(=O)O)cc1)C(=O)O; Gly(decyl) = CCCCCCCCCC[C@H](N)C(=O)O; Gly(N(CH2)3COOH) = O=C(O)CCCNCC(=O)O; Gly(octyl) = CCCCCCCC[C@H](N)C(=O)O; NMe3Pal = CN[C@@H](Cc1cccnc1)C(=O)O; X1 = CCCCCCC[C@H](N[*:1])C(=O)[*:2]; NMeF = CN[C@@H](Cc1ccccc1)C(=O)O; Aoc(2) = CCCCCC[C@H](N)C(=O)O; Ahp(2) = CCCCC[C@H](N)C(=O)O; NMeA = CN[C@@H](C)C(=O)O; Sar = CNCC(=O)O

As for `CCCCCCC[C@@H]1NC(=O)[C@H](Cc2ccccc2)N(C)C(=O)[C@H](CCCNC(=N)N)NC(=O)[C@H](Cc2ccc(C(=O)O)cc2)NC(=O)[C@H](Cc2cccc(OCC(=O)O)c2)NC(=O)[C@H](C)N(C)C(=O)[C@H]([C@@H](C)CC)NC(=O)[C@H](Cc2ccccc2)N(C)C(=O)[C@H](Cc2ccc(O)cc2)NC(=O)[C@H](Cc2c[nH]c3ccccc23)NC(=O)[C@H](C)NC(=O)[C@H](C)N(C)C(=O)CSC[C@H](C(=O)O)NC(=O)[C@H](Cc2ccccc2)N(C)C(=O)[C@H](C)N(C)C1=O` [Myostatin_99_v195] ({CH2CO}-[NMeA]AWY[NMeF]I[NMeA][Phe(3-OCH2COOH)][Phe(4-COOH)]R[NMeF][X1][NMeA][NMeF][dC]-OH; thioether N-15), the half-inhibitory concentration (IC50) came out at 1.3 nM at Myostatin [1] and 255 nM on GDF-11. Besides, the Selectivity in the assay on Myostatin [2] is recorded as 196.
Take `CCCCCCC[C@@H]1NC(=O)[C@H](Cc2ccccc2)N(C)C(=O)[C@H](CCCNC(=N)N)NC(=O)[C@H](Cc2ccc(C(=O)O)cc2)NC(=O)[C@H](Cc2cccc(OCC(=O)O)c2)NC(=O)[C@H](C)N(C)C(=O)[C@H]([C@@H](C)CC)NC(=O)[C@H](Cc2ccccc2)N(C)C(=O)[C@H](Cc2ccc(O)cc2)NC(=O)[C@H](Cc2c[nH]c3ccccc23)NC(=O)[C@H](C)NC(=O)CN(CCCC(=O)O)C(=O)CSC[C@H](C(N)=O)NC(=O)[C@H](Cc2ccccc2)N(C)C(=O)[C@H](C)N(C)C1=O` [Myostatin_99_v196] ({CH2CO}-[Gly(N(CH2)3COOH)]AWY[NMeF]I[NMeA][Phe(3-OCH2COOH)][Phe(4-COOH)]R[NMeF][X1][NMeA][NMeF][dC]-NH2; thioether N-15): the figures for the 50% inhibitory concentration (IC50) on Myostatin [1] and on GDF-11 were 3.4 nM and 603 nM, respectively. The Selectivity in the assay on Myostatin [2] is recorded as 177.
Consider `CCCCCCC[C@@H]1NC(=O)[C@H](Cc2ccccc2)N(C)C(=O)[C@H](CCCNC(=N)N)NC(=O)[C@H](Cc2ccc(C(=O)O)cc2)NC(=O)[C@H](Cc2cccc(OCC(=O)O)c2)NC(=O)[C@H](C)N(C)C(=O)[C@H]([C@@H](C)CC)NC(=O)[C@H](Cc2ccccc2)N(C)C(=O)[C@H](Cc2ccc(O)cc2)NC(=O)[C@H](Cc2c[nH]c3ccccc23)NC(=O)[C@H](CO)NC(=O)[C@H](C)NC(=O)CSC[C@H](C(=O)O)NC(=O)[C@H](Cc2ccccc2)N(C)C(=O)[C@H](C)N(C)C1=O` [Myostatin_99_v197] ({CH2CO}-ASWY[NMeF]I[NMeA][Phe(3-OCH2COOH)][Phe(4-COOH)]R[NMeF][X1][NMeA][NMeF][dC]-OH; thioether N-15), for which the figures for the IC50 on Myostatin [1] and on GDF-11 were 3.4 nM and 438 nM, respectively. Also, the Selectivity with Myostatin [2] is given as 129.
For the molecule `CCCCCCCCCC[C@@H]1NC(=O)[C@H](Cc2ccccc2)N(C)C(=O)[C@H](CCCNC(=N)N)NC(=O)[C@H](Cc2ccc(C(=O)O)cc2)NC(=O)[C@H](Cc2cccc(OCC(=O)O)c2)NC(=O)[C@H](C)N(C)C(=O)[C@H]([C@@H](C)CC)NC(=O)[C@H](Cc2ccccc2)N(C)C(=O)[C@H](Cc2ccc(O)cc2)NC(=O)[C@H](Cc2c[nH]c3ccccc23)NC(=O)[C@H](C)NC(=O)CN(CCCC(=O)O)C(=O)CSC[C@H](C(=O)O)NC(=O)[C@H](Cc2ccccc2)N(C)C(=O)[C@H](C)N(C)C1=O` [Myostatin_99_v198] ({CH2CO}-[Gly(N(CH2)3COOH)]AWY[NMeF]I[NMeA][Phe(3-OCH2COOH)][Phe(4-COOH)]R[NMeF][Gly(decyl)][NMeA][NMeF][dC]-OH; thioether N-15), the IC50 was 0.7 nM on Myostatin [1] and 90 nM on GDF-11. This molecule also gave a Selectivity with Myostatin [2] of 123.
Turning to `CCCCCCCC[C@@H]1NC(=O)[C@H](Cc2ccccc2)N(C)C(=O)[C@H](CCCNC(=N)N)NC(=O)[C@H](Cc2ccc(C(=O)O)cc2)NC(=O)[C@H](Cc2cccc(OCC(=O)O)c2)NC(=O)[C@H](C)N(C)C(=O)[C@H]([C@@H](C)CC)NC(=O)[C@H](Cc2ccccc2)N(C)C(=O)[C@H](Cc2ccc(O)cc2)NC(=O)[C@H](Cc2c[nH]c3ccccc23)NC(=O)[C@H](C)NC(=O)CN(CCCC(=O)O)C(=O)CSC[C@H](C(=O)O)NC(=O)[C@H](Cc2ccccc2)N(C)C(=O)[C@H](C)N(C)C1=O` [Myostatin_99_v199] ({CH2CO}-[Gly(N(CH2)3COOH)]AWY[NMeF]I[NMeA][Phe(3-OCH2COOH)][Phe(4-COOH)]R[NMeF][Gly(octyl)][NMeA][NMeF][dC]-OH; thioether N-15), the IC50 was determined as 1.2 nM on Myostatin [1] and 159 nM on GDF-11. Also, the Selectivity in the assay on Myostatin [2] is 133.
As for `CCCCCCCC[C@@H]1NC(=O)[C@H](Cc2ccccc2)N(C)C(=O)[C@H](CCCNC(=N)N)NC(=O)[C@H](Cc2ccc(C(=O)O)cc2)NC(=O)[C@H](Cc2cccc(OCC(=O)O)c2)NC(=O)CN(C)C(=O)[C@H]([C@@H](C)CC)NC(=O)[C@H](Cc2ccccc2)N(C)C(=O)[C@H](Cc2ccc(O)cc2)NC(=O)[C@H](Cc2c[nH]c3ccccc23)NC(=O)[C@H](C)NC(=O)CN(CCCC(=O)O)C(=O)CSC[C@H](C(=O)O)NC(=O)[C@H](Cc2ccccc2)N(C)C(=O)[C@H](C)N(C)C1=O` [Myostatin_99_v200] ({CH2CO}-[Gly(N(CH2)3COOH)]AWY[NMeF]I[Sar][Phe(3-OCH2COOH)][Phe(4-COOH)]R[NMeF][Gly(octyl)][NMeA][NMeF][dC]-OH; thioether N-15), the half-inhibitory concentration (IC50) was 1 nM at Myostatin [1] and 233 nM at GDF-11. The molecule also came in with a Selectivity in the assay on Myostatin [2] of 233.
As for `CCCCC[C@@H]1NC(=O)[C@H](Cc2ccccc2)N(C)C(=O)[C@H](CCCNC(=N)N)NC(=O)[C@H](Cc2ccc(C(=O)O)cc2)NC(=O)[C@H](Cc2cccc(OCC(=O)O)c2)NC(=O)CN(C)C(=O)[C@H]([C@@H](C)CC)NC(=O)[C@H](Cc2ccccc2)N(C)C(=O)[C@H](Cc2ccc(O)cc2)NC(=O)[C@H](Cc2c[nH]c3ccccc23)NC(=O)[C@H](C)NC(=O)[C@H](C)NC(=O)CSC[C@H](C(=O)O)NC(=O)[C@H](Cc2ccccc2)N(C)C(=O)[C@H](C)N(C)C1=O` [Myostatin_99_v201] ({CH2CO}-AAWY[NMeF]I[Sar][Phe(3-OCH2COOH)][Phe(4-COOH)]R[NMeF][Ahp(2)][NMeA][NMeF][dC]-OH; thioether N-15), the results for the IC50 at Myostatin [1] and at GDF-11 were 8.6 nM and 2260 nM, respectively. In the assay with Myostatin [2], this molecule gave a Selectivity of 262.
Take `CCCCCC[C@@H]1NC(=O)[C@H](Cc2ccccc2)N(C)C(=O)[C@H](CCCNC(=N)N)NC(=O)[C@H](Cc2ccc(C(=O)O)cc2)NC(=O)[C@H](Cc2cccc(OCC(=O)O)c2)NC(=O)CN(C)C(=O)[C@H]([C@@H](C)CC)NC(=O)[C@H](Cc2ccccc2)N(C)C(=O)[C@H](Cc2ccc(O)cc2)NC(=O)[C@H](Cc2c[nH]c3ccccc23)NC(=O)[C@H](C)NC(=O)[C@H](C)NC(=O)CSC[C@H](C(=O)O)NC(=O)[C@H](Cc2ccccc2)N(C)C(=O)[C@H](C)N(C)C1=O` [Myostatin_99_v207] ({CH2CO}-AAWY[NMeF]I[Sar][Phe(3-OCH2COOH)][Phe(4-COOH)]R[NMeF][Aoc(2)][NMeA][NMeF][dC]-OH; thioether N-15): the IC50 at Myostatin [1] was determined as 3.5 nM; at GDF-11, 270 nM. The molecule further came in with a Selectivity in the assay with Myostatin [2] of 77.
The corresponding values for `CCCCCCC[C@@H]1NC(=O)[C@H](Cc2ccccc2)N(C)C(=O)[C@H](CCCNC(=N)N)NC(=O)[C@H](Cc2ccc(C(=O)O)cc2)NC(=O)[C@H](Cc2cccc(OCC(=O)O)c2)NC(=O)CN(C)C(=O)[C@H]([C@@H](C)CC)NC(=O)[C@H](Cc2ccccc2)NC(=O)[C@H](Cc2ccc(O)cc2)NC(=O)[C@H](Cc2c[nH]c3ccccc23)NC(=O)[C@H](C)NC(=O)[C@H](C)NC(=O)CSC[C@H](C(=O)O)NC(=O)[C@H](Cc2ccccc2)N(C)C(=O)[C@H](C)N(C)C1=O` [Myostatin_99_v209] ({CH2CO}-AAWYFI[Sar][Phe(3-OCH2COOH)][Phe(4-COOH)]R[NMeF][X1][NMeA][NMeF][dC]-OH; thioether N-15) are 5.4 nM, 794 nM and 147.
For `CCCCCCC[C@@H]1NC(=O)[C@H](Cc2cccnc2)N(C)C(=O)[C@H](CCCNC(=N)N)NC(=O)[C@H](Cc2ccc(C(=O)O)cc2)NC(=O)[C@H](Cc2cccc(OCC(=O)O)c2)NC(=O)CN(C)C(=O)[C@H]([C@@H](C)CC)NC(=O)[C@H](Cc2ccccc2)N(C)C(=O)[C@H](Cc2ccc(O)cc2)NC(=O)[C@H](Cc2c[nH]c3ccccc23)NC(=O)[C@H](C)NC(=O)[C@H](C)NC(=O)CSC[C@H](C(=O)O)NC(=O)[C@H](Cc2ccccc2)N(C)C(=O)[C@H](C)N(C)C1=O` [Myostatin_99_v211] ({CH2CO}-AAWY[NMeF]I[Sar][Phe(3-OCH2COOH)][Phe(4-COOH)]R[NMe3Pal][X1][NMeA][NMeF][dC]-OH; thioether N-15), the IC50 on Myostatin [1] was found to be 1.1 nM; at GDF-11, 232 nM. The molecule further came in with a Selectivity with Myostatin [2] of 211.
The corresponding values for `CCCCCCC[C@@H]1NC(=O)[C@H](Cc2ccccc2)NC(=O)[C@H](CCCNC(=N)N)NC(=O)[C@H](Cc2ccc(C(=O)O)cc2)NC(=O)[C@H](Cc2cccc(OCC(=O)O)c2)NC(=O)CN(C)C(=O)[C@H]([C@@H](C)CC)NC(=O)[C@H](Cc2ccccc2)N(C)C(=O)[C@H](Cc2ccc(O)cc2)NC(=O)[C@H](Cc2c[nH]c3ccccc23)NC(=O)[C@H](C)NC(=O)[C@H](C)NC(=O)CSC[C@H](C(=O)O)NC(=O)[C@H](Cc2ccccc2)N(C)C(=O)[C@H](C)N(C)C1=O` [Myostatin_99_v212] ({CH2CO}-AAWY[NMeF]I[Sar][Phe(3-OCH2COOH)][Phe(4-COOH)]RF[X1][NMeA][NMeF][dC]-OH; thioether N-15) are 3.3 nM, 278 nM and 84.
